Experimental data from publication PMC4220016, “The binding characteristics and orientation of a novel radioligand with distinct properties at 5-HT3A and 5-HT3AB receptors” (Neuropharmacology, 2014).
“And” between values parts separate entries of the source, which are not always exact repeats. Equal entries are not always repeated. Where two headings read alike, the source gives them in different places.

Experiments:
5-HT3AB receptors = molecular target: T1, 5-HT3AB receptors (Homo sapiens, UniProt O95264+P46098); assay: Kinetic measurements (association, dissociation) at 5-HT3AB receptors; assay type: binding; parameters: expressed in transfected cells; host or cells: HEK 293; settings: from kinetic rates, Equ (4), read-out: Kd(nM) (kon/koff)
T1 sequence (P46098 24-478): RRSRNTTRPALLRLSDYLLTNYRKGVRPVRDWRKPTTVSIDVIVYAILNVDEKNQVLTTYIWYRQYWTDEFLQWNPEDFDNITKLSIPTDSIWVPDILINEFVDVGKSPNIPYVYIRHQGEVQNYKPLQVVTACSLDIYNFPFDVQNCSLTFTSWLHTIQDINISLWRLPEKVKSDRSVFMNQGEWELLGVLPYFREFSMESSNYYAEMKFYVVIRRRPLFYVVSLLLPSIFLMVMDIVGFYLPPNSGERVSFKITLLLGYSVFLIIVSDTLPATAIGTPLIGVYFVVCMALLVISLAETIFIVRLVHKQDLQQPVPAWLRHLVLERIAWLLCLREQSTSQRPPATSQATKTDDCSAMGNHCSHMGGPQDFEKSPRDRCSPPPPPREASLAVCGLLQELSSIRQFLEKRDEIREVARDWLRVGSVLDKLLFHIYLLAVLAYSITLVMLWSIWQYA
T1 sequence (O95264 22-441): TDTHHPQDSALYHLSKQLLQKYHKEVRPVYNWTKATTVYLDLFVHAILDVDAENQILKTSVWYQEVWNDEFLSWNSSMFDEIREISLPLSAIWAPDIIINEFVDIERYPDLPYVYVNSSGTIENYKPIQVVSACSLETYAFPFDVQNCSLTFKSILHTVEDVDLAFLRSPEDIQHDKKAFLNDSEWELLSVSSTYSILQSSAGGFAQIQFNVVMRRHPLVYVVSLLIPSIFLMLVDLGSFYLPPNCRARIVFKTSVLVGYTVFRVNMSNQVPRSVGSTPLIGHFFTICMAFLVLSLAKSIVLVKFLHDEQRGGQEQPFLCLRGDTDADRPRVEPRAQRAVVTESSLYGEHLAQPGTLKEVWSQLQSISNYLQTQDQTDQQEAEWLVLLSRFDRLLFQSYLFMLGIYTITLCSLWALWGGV

5-HT3A receptor K112C = molecular target: T2, 5-HT3A receptor K112C (Homo sapiens, UniProt P46098, K107C); assay: Saturation binding of [^3H]VUF10166 at 5-HT3A receptor mutant; settings: K112C; read-out: Kd (nM) Mean ± SEM
T2 construct: expressed in transfected cells; host or cells: HEK 293
T2 sequence (P46098 24-478 K107C): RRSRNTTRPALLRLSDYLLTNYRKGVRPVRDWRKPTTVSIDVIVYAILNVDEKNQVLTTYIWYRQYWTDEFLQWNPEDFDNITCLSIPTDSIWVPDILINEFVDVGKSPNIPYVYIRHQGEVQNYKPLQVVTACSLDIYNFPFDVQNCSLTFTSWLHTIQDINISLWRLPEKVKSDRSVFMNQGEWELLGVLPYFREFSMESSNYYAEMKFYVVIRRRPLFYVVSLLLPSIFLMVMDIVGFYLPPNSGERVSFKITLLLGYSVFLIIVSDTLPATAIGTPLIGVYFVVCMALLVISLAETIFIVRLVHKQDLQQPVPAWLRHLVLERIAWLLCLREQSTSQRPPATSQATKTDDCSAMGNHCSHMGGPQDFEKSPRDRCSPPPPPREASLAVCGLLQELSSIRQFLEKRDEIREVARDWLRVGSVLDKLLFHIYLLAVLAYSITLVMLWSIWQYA
Description: (§1) Mutagenesis was performed using the QuikChange method (Agilent Technologies Inc., California, USA) on human 5-HT3A cDNA (accession number: P46098) cloned into pcDNA3.1 (Invitrogen, Paisley, UK). Cysteine residues were substituted for amino acids throughout each of the binding loops A–E (Fig. 1). To facilitate comparisons with previous work, we use the numbering of the equivalent residues in the mouse 5-HT3A subunit; for human numbering 5 should be subtracted from each residue number.
(§2) All data were analysed using GraphPad Prism 4.03.

5-HT3A receptor E129C = molecular target: T3, 5-HT3A receptor E129C (Homo sapiens, UniProt P46098, E124C); assay: as above; settings: Loop A, read-out: Kd (nM) Mean ± SEM
T3 construct: expressed in transfected cells; host or cells: HEK 293
T3 sequence (P46098 24-478 E124C): as the sequence (P46098 24-478 K107C) above, with C84K, E101C counted along it
Description: as §1, §2

5-HT3A receptor R58C = molecular target: T4, 5-HT3A receptor R58C (Homo sapiens, UniProt P46098, R53C); assay: as above; settings: read-out: Kd (nM) Mean ± SEM
T4 construct: expressed in transfected cells; host or cells: HEK 293
T4 sequence (P46098 24-478 R53C): as the sequence (P46098 24-478 K107C) above, with R30C, C84K counted along it
Description: as §1, §2

5-HT3A receptor H185C = molecular target: T5, 5-HT3A receptor H185C (Homo sapiens, UniProt P46098, H180C); assay: as above; settings: H185C, Loop B; read-out: Kd (nM) Mean ± SEM
T5 construct: expressed in transfected cells; host or cells: HEK 293
T5 sequence (P46098 24-478 H180C): as the sequence (P46098 24-478 K107C) above, with C84K, H157C counted along it
Description: as §1, §2

5-HT3A receptor W90C = molecular target: T6, 5-HT3A receptor W90C (Homo sapiens, UniProt P46098, W85C); assay: as above; settings: Loop D, read-out: Kd (nM) Mean ± SEM
T6 construct: expressed in transfected cells; host or cells: HEK 293
T6 sequence (P46098 24-478 W85C): as the sequence (P46098 24-478 K107C) above, with W62C, C84K counted along it
Description: as §1, §2

5-HT3A receptor Q151C = molecular target: T7, 5-HT3A receptor Q151C (Homo sapiens, UniProt P46098, Q146C); assay: as above; settings: Q151C, Loop E; read-out: Kd (nM) Mean ± SEM
T7 construct: expressed in transfected cells; host or cells: HEK 293
T7 sequence (P46098 24-478 Q146C): as the sequence (P46098 24-478 K107C) above, with C84K, Q123C counted along it
Description: as §1, §2

5-HT3A receptor Y143C = molecular target: T8, 5-HT3A receptor Y143C (Homo sapiens, UniProt P46098, Y138C); assay: as above; settings: Loop E, read-out: Kd (nM) Mean ± SEM
T8 construct: expressed in transfected cells; host or cells: HEK 293
T8 sequence (P46098 24-478 Y138C): as the sequence (P46098 24-478 K107C) above, with C84K, Y115C counted along it
Description: as §1, §2

5-HT3A receptor W183C = molecular target: T9, 5-HT3A receptor W183C (Homo sapiens, UniProt P46098, W178C); assay: as above; settings: Loop B, read-out: Kd (nM) Mean ± SEM
T9 construct: expressed in transfected cells; host or cells: HEK 293
T9 sequence (P46098 24-478 W178C): as the sequence (P46098 24-478 K107C) above, with C84K, W155C counted along it
Description: as §1, §2

5-HT3A receptor I71C = molecular target: T10, 5-HT3A receptor I71C (Homo sapiens, UniProt P46098, I66C); assay: as above; settings: I71C; read-out: Kd (nM) Mean ± SEM
T10 construct: expressed in transfected cells; host or cells: HEK 293
T10 sequence (P46098 24-478 I66C): as the sequence (P46098 24-478 K107C) above, with I43C, C84K counted along it
Description: as §1, §2

5-HT3A receptor S114C = molecular target: T11, 5-HT3A receptor S114C (Homo sapiens, UniProt P46098, S109C); assay: as above; settings: S114C; read-out: Kd (nM) Mean ± SEM
T11 construct: expressed in transfected cells; host or cells: HEK 293
T11 sequence (P46098 24-478 S109C): as the sequence (P46098 24-478 K107C) above, with C84K, S86C counted along it
Description: as §1, §2

5-HT3A receptor N128C = molecular target: T12, 5-HT3A receptor N128C (Homo sapiens, UniProt P46098, N123C); assay: as above; settings: N128C, Loop A; read-out: Kd (nM) Mean ± SEM
T12 construct: expressed in transfected cells; host or cells: HEK 293
T12 sequence (P46098 24-478 N123C): as the sequence (P46098 24-478 K107C) above, with C84K, N100C counted along it
Description: as §1, §2

5-HT3A receptor Y234C = molecular target: T13, 5-HT3A receptor Y234C (Homo sapiens, UniProt P46098, Y229C); assay: as above; settings: Loop C, read-out: Kd (nM) Mean ± SEM
T13 construct: expressed in transfected cells; host or cells: HEK 293
T13 sequence (P46098 24-478 Y229C): as the sequence (P46098 24-478 K107C) above, with C84K, Y206C counted along it
Description: as §1, §2

5-HT3A receptor Y141C = molecular target: T14, 5-HT3A receptor Y141C (Homo sapiens, UniProt P46098, Y136C); assay: as above; settings: Loop E, read-out: Kd (nM) Mean ± SEM
T14 construct: expressed in transfected cells; host or cells: HEK 293
T14 sequence (P46098 24-478 Y136C): as the sequence (P46098 24-478 K107C) above, with C84K, Y113C counted along it
Description: as §1, §2

5-HT3A receptor T181C = molecular target: T15, 5-HT3A receptor T181C (Homo sapiens, UniProt P46098, T176C/T181C); assay: as above; settings: Loop B, read-out: Kd (nM) Mean ± SEM
T15 construct: expressed in transfected cells; host or cells: HEK 293
T15 sequence (P46098 24-478 T176C/T181C): as the sequence (P46098 24-478 K107C) above, with C84K, T153C, T158C counted along it
Description: as §1, §2

5-HT3A receptor I139C = molecular target: T16, 5-HT3A receptor I139C (Homo sapiens, UniProt P46098, I134C); assay: as above; settings: I139C, Loop E; read-out: Kd (nM) Mean ± SEM
T16 construct: expressed in transfected cells; host or cells: HEK 293
T16 sequence (P46098 24-478 I134C): as the sequence (P46098 24-478 K107C) above, with C84K, I111C counted along it
Description: as §1, §2

5-HT3A receptor E236C = molecular target: T17, 5-HT3A receptor E236C (Homo sapiens, UniProt P46098, E231C); assay: as above; settings: Loop C, read-out: Kd (nM) Mean ± SEM
T17 construct: expressed in transfected cells; host or cells: HEK 293
T17 sequence (P46098 24-478 E231C): as the sequence (P46098 24-478 K107C) above, with C84K, E208C counted along it
Description: as §1, §2

5-HT3A receptor T179C = molecular target: T18, 5-HT3A receptor T179C (Homo sapiens, UniProt P46098, T174C); assay: as above; settings: Loop B, read-out: Kd (nM) Mean ± SEM
T18 construct: expressed in transfected cells; host or cells: HEK 293
T18 sequence (P46098 24-478 T174C): as the sequence (P46098 24-478 K107C) above, with C84K, T151C counted along it
Description: as §1, §2

5-HT3A receptor D189C = molecular target: T19, 5-HT3A receptor D189C (Homo sapiens, UniProt P46098, D184C); assay: as above; settings: Loop B, read-out: Kd (nM) Mean ± SEM
T19 construct: expressed in transfected cells; host or cells: HEK 293
T19 sequence (P46098 24-478 D184C): as the sequence (P46098 24-478 K107C) above, with C84K, D161C counted along it
Description: as §1, §2

5-HT3A receptor N232C = molecular target: T20, 5-HT3A receptor N232C (Homo sapiens, UniProt P46098, N227C); assay: as above; settings: N232C, Loop C; read-out: Kd (nM) Mean ± SEM
T20 construct: expressed in transfected cells; host or cells: HEK 293
T20 sequence (P46098 24-478 N227C): as the sequence (P46098 24-478 K107C) above, with C84K, N204C counted along it
Description: as §1, §2

SMILES: CN1CCN(c2nc3ccccc3nc2Cl)CC1 [[^3H]VUF10166] [2-chloro-3-(4-[^3H]methylpiperazin-1-yl)quinoxaline]
- Kd (5-HT3AB receptors; first component): 0.38 nM
- Kd (5-HT3AB receptors; second component (>3 nM)): 22 nM and 22.4 nM
- Kd (5-HT3A receptor K112C): 0.13 ± 0.03 nM
- Kd (5-HT3A receptor E129C): > 10 nM
- Kd (5-HT3A receptor R58C): > 10 nM
- Kd (5-HT3A receptor H185C): 0.96 ± 0.39 nM
- Kd (5-HT3A receptor W90C): > 10 nM
- Kd (5-HT3A receptor Q151C): 1.82 ± 0.19 nM
- Kd (5-HT3A receptor Y143C): > 10 nM
- Kd (5-HT3A receptor W183C): > 10 nM
- Kd (5-HT3A receptor I71C): 0.23 ± 0.05 nM
- Kd (5-HT3A receptor S114C): 0.21 ± 0.09 nM
- Kd (5-HT3A receptor N128C): 0.7 ± 0.1 nM
- Kd (5-HT3A receptor Y234C): > 10 nM
- Kd (5-HT3A receptor Y141C): > 10 nM
- Kd (5-HT3A receptor T181C): > 10 nM
- Kd (5-HT3A receptor I139C): 1.55 ± 0.15 nM
- Kd (5-HT3A receptor E236C): > 10 nM
- Kd (5-HT3A receptor T179C): > 10 nM
- Kd (5-HT3A receptor D189C): > 10 nM
- Kd (5-HT3A receptor N232C): 1.9 ± 0.36 nM
